From patent publication US20260364213A1, “RADIOLABELED COMPOUNDS OF TRIMETHOPRIM AND USES THEREOF” (THE TRUSTEES OF THE UNIVERSITY OF PENNSYLVANIA, priority 2023, published 2026)
Like-named read-outs stand apart in the source and are kept apart here.

Experiments:
eDHFR [1] = target: T1, eDHFR (Escherichia coli, UniProt P0ABQ4)
T1 sequence (P0ABQ4 1-159): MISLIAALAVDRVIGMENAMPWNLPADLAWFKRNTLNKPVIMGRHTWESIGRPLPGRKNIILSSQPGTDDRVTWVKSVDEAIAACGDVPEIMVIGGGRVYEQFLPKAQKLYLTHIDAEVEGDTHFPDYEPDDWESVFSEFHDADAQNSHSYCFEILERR

eDHFR [2] = target: T1, eDHFR; assay type: cell-based; design: in CAR T cells fused to C-terminus of CD3zeta of FAP-CAR; settings: for uptake in eDHFR+ CAR T cells compared to NTD cells: 0.074 MBq, 60 min at 37 °C, FAP-CAR-eDHFR (DF-BFP), day 8 of T cell expansion, 60 min
Procedure: Primary human T cells were sourced from healthy volunteers through the Human Immunology Core at the University of Pennsylvania. All specimens were obtained following institutional review board-approved protocols and informed consent from the volunteers. Bulk T cells were activated and expanded following established methods and subsequently, either pTRPE-FAP CAR-eDHFR DF or pTRPE-FAP CAR-eDHFR DF-T2A-BFP (7) lentivirus was introduced to the activated T cells 16 hours post-activation at a multiplicity of infection (MOI) of 5. The T cells were then expanded for a period of 10 days. Transduced CAR T cells were incubated with Alexa Fluor 647 AffiniPure F(ab′2) fragment goat anti-mouse immunoglobulin G (Jackson ImmunoResearch Laboratories) for half an hour at room temperature. Following incubation, stained cells were washed 3*100 μL with FACS buffer (2% bovine serum albumin in PBS, Invitrogen). The washed cells were analyzed using a flow cytometer (LSR II, BD Biosciences) to detect CAR and/or BFP expression. FlowJo software was used to analyze the flow data.
Next, the uptake radio-iodinated probe 5b was evaluated in primary human CAR-T cells. CAR-T cells were engineered to express eDHFR which is fused directly to the C-terminus of the signaling CD3zeta domain of the fibroblast activation protein (FAP) CAR. […] After incubation, the cells were centrifuged at 1200 rpm and were washed thrice with cold PBS (Corning). Subsequently, the cell pellet was resuspended in 1% DMSO/PBS and divided into 3 technical replicates of 100 μL each. The uptake of radiotracer was quantified using a gamma counter (PerkinElmer). The final uptake was expressed as a ratio of % ID normalized per […] cells (% ID/million cells). An about 15 fold more uptake in eDHFR+ cells was observed as compared to NTD cells. See, FIGS. 6A and 6B. The specificity is further assessed by comparing with FAP_CAR_eDHFR(df) which has low eDHFR expression. Less uptake of radiotracer 5b was observed as compared to high expressing eDHFR FAP_CARs.
[^131I]I-TMP in CAR T cells. […] In this case, two different fibroblast activation protein (FAP) CAR T cell constructs that express eDHFR fused directly to the C-terminus of the signaling CD3zeta domain of the CAR were used (7) (FIGS. 13F and 13G). […] There was ~15-fold more uptake in FAP-CAR-eDHFR-DF-BFP in comparison to NTD cells at day 8 of T cell expansion (FIG. 13A).

HCT116 eDHFR-Luc cells = test: Kill assay (MTT) in HCT116 eDHFR-Luc cells; assay type: cell-based, human; settings: 3.7 MBq; for cell growth at day 10: in comparison to blocked conditions
Procedure: (§1) Following the same uptake protocol till washing after the third wash the cells were counted using cell counter and they were diluted to generate even number of cells/mL. […] We've applied the same blocked conditions used in the uptake assay. […] Then cells will be re-distributed into 96 well plates (2,000 cells/well) with fresh media to monitor cell proliferation by MTT assay on days 1, 3, 7 and 10. A total of 9 wells (3×3) were measured on the plate per sample per time point. To complete the assay cell media was removed and replaced with 50 μL of serum free media and 50 μL of MTT reagent. The plates were covered with tin foil and incubated at 37 °C for 3 hours. The plates were shaken at 200 rpm at 37 °C for 15 min. Using the microplate plate reader, sample absorbance was measured at 590 nm for 600 ms. Controls included [^131I]NaI treated cells and blocking with 10 μM parent TMP (unlabeled). An analogous procedure was used for the OVCAR8-eDHFR-Luc kill assay with different doses (1.85-37 MBq) and treatment times.
Despite lower uptake in HCT116 cells, cell viability was measured on days 1, 3, 7, and 10 using the MTT assay and compared with blocked, no drug and [^131I]I—Na treated cells. […] See, FIG. 3A. […] See, FIG. 3B.

Serum stability in FBS = assay type: in vitro ADME; settings: FBS at 37 °C, 72 hours, radio-TLC
Procedure: In vitro serum stability of was performed by adding the [^131I]mI-TMP (50 μL, 1.85 MBq) to fetal bovine serum (500 μL). The mixture was then incubated in a ThermoMixer (800 rpm) at 37 °C, and deiodination was analyzed by radio-TLC (10% NH40Ac:MeOH=3:7) at 0, 24, and 72 h. In this condition, free I-131 moved to solvent front whereas intact [^131I]I-TMP remained at the origin.

OVCAR8-eDHFR-Luc cells = test: Kill assay (MTT) in OVCAR8-eDHFR-Luc cells; assay type: cell-based, human
Procedure: as §1
To investigate the therapeutic potential of m[^131I]mI-TMP 5b in tumor cell lines, OVCAR8 eDHFR+ cells were exposed to varying doses (ranging from 1.85-37 MBq) of the radiotracer of 5b at different incubation times. Different conditions were employed to assess the selective therapeutic effect of the radio tracer on eDHFR+ cells. To determine the specific killing of eDHFR+ tumor cells, blocked conditions were analyzed. The cell viability of compound 5b-treated cells was also compared with the cells exposed to [^131I]I—Na. Additionally, untreated cells were used as controls. The MTT assay was used to measure the cell viability of the cells under the aforementioned conditions on days 1, 3, 7, and 12.
OVCAR8-eDHFR-Luc+ cells were treated with 1.85 and 18.5 MBq of m[^131I]mI-TMP 5b and [^131I]I—Na, incubated for 1 hour. […] The cell viability of the compound 5b-treated cells was similar to cells under blocked, [^131I]NaI, and no drug conditions. See, FIG. 2A. […] See, FIG. 2B. Based on the results obtained, a continued dose escalation was considered to better understand the therapeutic window. Finally, OVCAR_eDHFR+ cells were tested with 37 MBq dose of m[^131I]mI-TMP.

| Compound | uptake under blocked conditions (eDHFR [1]; OVCAR8 eDHFR cells preincubated with excess of TMP) | retention in washout study (eDHFR [2]; FAP_CAR_eDHFR cells, after 5 h) | uptake in FAP_CAR_eDHFR(df) with low eDHFR expression (eDHFR [2]; compared to high expressing eDHFR FAP_CARs) | cytotoxic effect (HCT116 eDHFR-Luc cells; 2 hours incubation) | cell viability at day 7 (HCT116 eDHFR-Luc cells; 4 hours incubation) | cytotoxic effect (HCT116 eDHFR-Luc cells; 4 hours incubation, compared to blocked cells) | cell growth at day 10 (HCT116 eDHFR-Luc cells; 4 hours incubation) | serum stability, deiodination (Serum stability in FBS) | cytotoxic effect / cell viability (OVCAR8-eDHFR-Luc cells; 1.85 MBq, 1 hour) | cell viability under blocked conditions (OVCAR8-eDHFR-Luc cells; 18.5 MBq, 1 h, cells treated with the blocking agent (10 μM TMP)) | cytotoxic effect / cell viability (OVCAR8-eDHFR-Luc cells; 18.5 MBq, 1 h, viability to day 12) | tracer uptake in eDHFR+ cells compared to WT cells (eDHFR [1]; OVCAR8-eDHFR-Luc vs OVCAR8 WT, 0.037 MBq, 1 hour) | uptake in eDHFR+ CAR T cells compared to NTD cells (eDHFR [2]) | uptake in eDHFR+ CAR T cells compared to NTD cells (eDHFR [2]; listed as [^131I]I-TMP) | uptake in CAR T cells, earlier day of expansion (eDHFR [2]; earlier day of expansion (day 5)) | cytotoxic effect (OVCAR8-eDHFR-Luc cells; 37 MBq, also with 20 minutes incubation, blocked cells behaved the same) |
| --- | --- | --- | --- | --- | --- | --- | --- | --- | --- | --- | --- | --- | --- | --- | --- | --- |
| COc1cc(Cc2cnc(N)nc2N)cc(I)c1OC [[^131I]mI-TMP, 5-(3-iodo-4,5-dimethoxybenzyl)pyrimidine-2,4-diamine] | reduced uptake | strong internalization of compound 5b even after 5 h | Less uptake | did not exhibit any cytotoxic effect | did not show any viability on day 7 | demonstrated a cytotoxic effect | mild growth at day 10 | without any detectable deiodination | did not exhibit any cytotoxic effects/decreased viability | comparable viability to those under no treatment or [^131I]I—Na conditions | strong cytotoxic effects, and thus no cell regrowth/significantly lower viability was observed at day 7 and even at day 12 |  |  |  |  |  |
| COc1cc(Cc2cnc(N)nc2N)cc([131I])c1OC [[^131I]mI-TMP, 5-(3-iodo-4,5-dimethoxybenzyl)pyrimidine-2,4-diamine] |  |  |  |  | no cell regrowth at day 7 |  | mild regrowth was observed at day 10 and beyond |  |  |  |  | ~ 25 fold | about 15 fold | ~ 15 fold | ~ 3 fold | non-specific cell killing |
